According to patent US10568857B2, “Method of treating renal system damage” (The University of Utah Research Foundation, priority 2008, dated 2020):
Entries after “also recorded” stand apart in the source; their conditions may differ.

Experiments:
[1] = system: B6129SF2/J mice (cisplatin-induced toxicity); assay: Effects of OA-NO2 on cisplatin-induced toxicity in mice; format: in vivo, mouse; settings: cisplatin 20 mg/kg i.p.
Experimental: FIG. 1. A bar graph showing the plasma concentrations of Blood Urea Nitrogen (BUN) in mice under the conditions indicated. N=5-6. Data are mean±n SE. B6129S2/J mice (male, 3-4-mo-old) received vehicle (Control) or a single i.p. injection of cisplatin alone (20 mg/kg in saline). After 20 min, the cisplatin group was randomly divided to receive an i.p injection of OA-NO2 (400 mg/kg in ethanol) or an equivalent amount of ethanol at 6-h intervals for 48 h.
Male 3-4-month-old B6129SF2/J mice were from Jackson Laboratories (Bar Harbor, Me.). All animals were housed in an air-conditioned room with a 12-hour light/dark cycle. All procedures and protocols were in accordance with guidelines set by the Laboratory Animal Care Committee at the University of Utah.
Protocol for testing effects of OA-NO2 on cisplatin-induced toxicity in B6129SF2/J mice. B6129S2/J mice (male, 3-4-mo-old) received vehicle (saline) or a single i.p. (intraperitoneal) injection of cisplatin alone (20 mg/kg in saline). After 20 minutes, the cisplatin group was randomly divided to receive an i.p. injection of OA-NO2 (400 mg/kg in ethanol) or an equivalent amount of ethanol at 6-hour intervals for 48 hours. The control group also received an i.p. injection of the equivalent amount of ethanol at the same frequencies. At the end of the experiments, under isoflurane anesthesia, blood was withdrawn from the vena cava using 1 cc insulin syringe and kidneys were harvested for analysis of morphology and gene expression.

[2] = system: human proximal tubular cells (HK2); format: cell-based; settings: pretreatment 1 h with 1.5 μM OA-NO2, then 24 h 1 μM cisplatin
Experimental: FIG. 6. Bar graphs show the effects of nitrated fatty acid OA-NO2 on cisplatin-induced apoptosis in vivo and in vitro. A), Caspase activity in the mouse kidney. N=5-6 in each group. B), Caspase activity in cultured human proximal tubular cells (HK2). Following pretreatment for 1 h with vehicle or 1.5 μM OA-NO2, the cells were exposed for 24 h to 1 μM cisplatin. N=3 in each group. Data are mean±SE. A single dose of i.p. injection of cisplatin induced renal dysfunction as indicated by the marked rise in plasma BUN (FIG. 1), accompanied by severe renal histological abnormalities characterized by distortion of the overall renal morphology, dilation of renal tubules, and appearance of protein cast (FIG. 2).

[3] = system: BALB/c mice (ADR nephropathy); assay: Adriamycin (ADR) nephropathy in mice, OA-NO2 pretreatment via osmotic mini-pump; format: in vivo, mouse; settings: for albuminuria (urinary albumin): control 33.39±3.50; for plasma albumin: control 1.01±0.15
Experimental: Male BABL/C mice were purchased from the Jackson Laboratories (Bar Harbor, Me., USA). Mice were maintained in a temperature-controlled barrier facility with a 12:12-h light-dark cycle and were given free access to standard laboratory chow and tap water. Mice were randomized into three groups: 1) control, 2) Adriamycin (ADR), and 3) ADR+ nitro-oleic acid (OA-NO2). In Group 3, OA-NO2 (dissolved in ethanol) was administered at 5 mg/kg/day via subcutaneously implanted osmotic mini-pump and vehicle (ethanol) was given to the other two groups. This dose was chosen based a previous study (35). After 2 days of pretreatment with OA-NO2, Groups 2 and 3 received a single tail vein injection of ADR at 10 mg/kg. Group 1 received a single tail vein injection of saline. Twenty four-hour urine was collected with using metabolic cages. Seven days after ADR treatment, all mice were killed and kidneys were immediately harvested gene expression or histological analyses. All protocols employing mice were conducted in accordance the principles and guidance of the University of Utah Institutional Animal Care and Committee.
Urine samples were centrifuged for 5 minutes at 10,000 rpm. Blood samples from anesthetized mice were collected by puncturing the vena cava using a 1-ml insulin syringe containing 50 μl of 1 mM EDTA in the absence of protease inhibitors. Urine and plasma albumin was determined using a murine microalbuminuria enzyme-linked immunosorbent assay kit (Cat#1011, EXOCELL). Plasma triglyceride level was determined using a LabAssay Triglyceride ELISA Kit (Cat#290-63701, WAKO). Urine and plasma levels of urea were measured by Urea Nitrogen Direct kit (Cat#0580-250, Stanbio Laboratory), and urine and plasma levels of creatinine were measured by Creatinine Liquicolor kit (Cat#0420-250, Stanbio Laboratory).
Under anesthesia, kidneys were removed and fixed with 4% paraformaldehyde. The tissues were subsequently embedded in paraffin and 4-μm sections were cut and stained with periodic acid Schiff (PAS). Glomerular sclerosis was assessed as follows using a semiquantitative score: grade 0, normal appearance; grade I, involvement of up to 25% of the glomerulus; grade II, involvement of 25 to 50% of the glomerulus; grade III, involvement of 50 to 75% of the glomerulus; grade IV, involvement of 75 to 100% of the glomerulus. A glomerulosclerosis index (GSI) was calculated by multiplying the number of glomeruli with a sclerosis score of I by one, the number with a score of II by two, III by three, and IV by four. These values were summed and divided by the number of glomeruli assessed, including those with a sclerosis score of zero. The SI for each kidney specimen was a sum of the points from 30 glomeruli. Tubulointerstitial injury (defined as tubular atrophy, dilatation, thickening of the basement membrane, protein cast) by semiquantitative analysis. Thirty cortical fields from each animal were examined at ×200 magnification and graded according to a scale of 0 to 4: 0, no tubulointerstitial injury 1, <25% of the tubulointerstitium injured; 2, 25% to 50% of the tubulointerstitium injured; 3, 51% to 75% of the tubulointerstitium injured; and 4, 76% to 100% of the tubulointerstitium injured. All sections were examined in blind manner.
Immunohistochemical staining was performed. Anti-WT1 antibody was purchased from Dako (Mob437, Dako).
Total RNA was isolated using TRIzol (Invitrogen, Carlsbad, Calif.), and first-strand cDNAs were synthesized from 2 μg of total RNA in […] reaction using SuperScript (Invitrogen). The first strand cDNAs served as the template for quantitative PCR performed in Applied Biosystems 7900 Real Time PCR System using SYBR green PCR reagent (Applied Biosystems, Foster City, Calif., USA). The amplification was carried out for 40 cycles with conditions of 15-s denaturation at 95° C. […]

[4] = OA-NO2 400 mg/kg i.p. at 6-h intervals for 48 h
[5] = OA-NO2 400 mg/kg i.p. at 6-h intervals for 48 h, real time RT-PCR
[6] = posttreatment OA-NO2 400 mg/kg i.p. at 6-h intervals for 48 h
[7] = ADR+OA-NO2 group vs ADR, P<0.05
[8] = OA-NO2 treatment in ADR mice, P<0.05
[9] = OA-NO2 treatment in ADR mice, real-time PCR and Western blotting, P<0.05

nitrooleic acid [OA-NO2]
activity of caspase in the mouse kidney [1, 4]: attenuated or completely corrected | kidney thiobarbituric acid-reactive substances (TBARS) [1, 4]: attenuated or completely corrected | plasma level of MPO ([1]; OA-NO2 400 mg/kg i.p. at 6-h intervals for 48 h, EIA): reduces; also recorded: attenuated or completely corrected | kidney expression of NADPH oxidase subunit gp91phox [1, 5]: attenuated or completely corrected | kidney expression of NADPH oxidase subunit p47phox [1, 5]: attenuated or completely corrected | plasma BUN (renal function) [1, 6]: improves renal function; also recorded: markedly attenuated | renal histological abnormalities (renal morphology, dilation of tubules, protein cast) [1, 6]: improves renal morphology; also recorded: markedly attenuated | cisplatin-induced caspase activity [2]: almost completely normalized | renal ZO-1 mRNA (qRT-PCR) ([3]; ADR+OA-NO2 group): significant elevation | number of WT1-positive cells (podocytes), immunohistochemistry ([3]; ADR+OA-NO2 group vs ADR group): partially restored | plasma BUN ([3]; ADR+OA-NO2 group vs ADR group): significantly attenuated | plasma creatinine ([3]; ADR+OA-NO2 group vs ADR group): significantly attenuated | renal gp91phox protein (immunoblot) ([3]; ADR+OA-NO2 group vs ADR, P<0.01): further confirmed at the protein level | renal mRNA expression of gp91phox [3, 7]: the increase was less | renal mRNA expression of p47phox [3, 7]: the increase was less | plasma triglyceride ([3]; ADR+OA-NO2 group, OA-NO2 5 mg/kg/day): 212.70 ± 39.22 mg/dL | albuminuria (urinary albumin) ([3]; ADR+OA-NO2 group, day 5 after ADR 10 mg/kg i.v., OA-NO2 5 mg/kg/day s.c. mini-pump from 2 days before): 342.40±33.26 μg/24 h | plasma albumin ([3]; ADR+OA-NO2 group, day 7 after ADR, OA-NO2 5 mg/kg/day): 0.58 ± 0.13 g/dL | mice having mild ascites at sacrifice ([3]; ADR+OA-NO2 mice, OA-NO2 5 mg/kg/day): 20% | glomerulosclerotic index (GSI), PAS staining ([3]; ADR+OA-NO2 vs ADR, P<0.05): ameliorates glomerulosclerosis; also recorded: marked reduction | albuminuria (urinary albumin), time course ([3]; ADR+OA-NO2 vs ADR, day 3 and day 7 after ADR injection): ameliorates albuminuria; also recorded: These changes were observed at day 3 and maintained at day 7 | tubulointerstitial lesion (TILI) ([3]; ADR+OA-NO2 vs ADR, day 8 after ADR injection): ameliorates | renal expression of IL-1β (qRT-PCR) ([3]; OA-NO2 in ADR mice): suppressed | renal expression of MCP-1 (qRT-PCR) ([3]; OA-NO2 in ADR mice): suppressed | renal expression of TNF-α (qRT-PCR) ([3]; OA-NO2 in ADR mice): suppressed | renal WT1 protein (immunoblotting) ([3]; OA-NO2 pretreatment in ADR mice, P<0.05): prevented the downregulation | renal desmin mRNA (qRT-PCR) ([3]; OA-NO2 treatment in ADR mice): prevented this increase | renal TGF-β mRNA expression [3, 8]: dramatic suppression | renal collagen III mRNA expression [3, 8]: dramatic suppression | renal fibronectin (FN) expression [3, 9]: prevented the up-regulation | renal α-SMA expression [3, 9]: prevented the up-regulation | kidney TBARS ([3]; OA-NO2 treatment vs ADR mice): trend of reduction of TBARS levels in response to OA-NO2 treatment but this did not reach a statistical significance | plasma TBARS ([3]; OA-NO2 treatment vs ADR mice): markedly attenuated | urinary TBARS ([3]; OA-NO2 treatment vs ADR mice): markedly attenuated

COc1cccc2c1C(=O)c1c(O)c3c(c(O)c1C2=O)C[C@@](O)(C(=O)CO)C[C@@H]3O[C@H]1C[C@H](N)[C@H](O)[C@H](C)O1 [ADR, doxorubicin (Adriamycin), reference compound]
plasma triglyceride ([3]; ADR group (ADR 10 mg/kg alone)): 396.18 ± 70.94 mg/dL | plasma albumin ([3]; ADR group (ADR 10 mg/kg alone), day 7): 0.28 ± 0.08 g/dL | albuminuria (urinary albumin) ([3]; ADR group (ADR 10 mg/kg tail vein alone), day 5): 508.89±48.52 μg/24 h | mice with severe ascites at sacrifice ([3]; ADR mice (ADR 10 mg/kg alone)): Ninety
